According to US20080207725A1, “Phenyl-Pyrazole Derivatives as Non-Steroidal Glucocorticoid Receptor Ligands” (Glaxo Group Limited, a corporation, priority 2005, published 2008):

These compounds were tested on NFkB activity (assay: Glucocorticoid mediated transrepression of NFkB activity (A549 ELAM promoter SPAP reporter, TNFα stimulated)). Conditions: Human A549 lung epithelial cells, 3 ng/ml human recombinant TNFα, 16 hours; read-out: pEC50, transrepression of NFkB activity (converted).
Assay type: cell-based
Description: Human A549 lung epithelial cells were engineered to contain a secreted placental alkaline phosphatase gene under the control of the distal region of the NFkB dependent ELAM promoter as previously described in Ray, K. P., Farrow, S., Daly, M., Talabot, F. and Searle, N. “Induction of the E-selectin promoter by interleukin 1 and tumour necrosis factor alpha, and inhibition by glucocorticoids” Biochemical Journal (1997) 328: 707-15.
Compounds were solvated and diluted in DMSO, and transferred directly into assay plates such that the final concentration of DMSO was 0.7%. Following the addition of cells (40K per well), plates were incubated for 1 hour prior to the addition of 3 ng/ml human recombinant TNFα. Following continued incubation for 16 hours, alkaline phosphatase activity was determined by measuring the change in optical density at 405 nm with time following the addition of 0.7 volumes of assay buffer (1 mg/ml p-nitrophenylphosphate dissolved in 1M diethanolamine, 0.28M NaCl, 0.5 mM MgCl2). Dose response curves were constructed from which EC50 values were estimated.

SMILES | EC50
CC(C)(C[C@@](O)(CNC(=O)c1cnn(-c2ccccc2F)c1N)C(F)(F)F)c1cccc2c1OCC2 [Example 12, (2R)-5-Amino-N-[4-(2,3-dihydro-1-benzofuran-7-yl)-2-hydroxy-4-methyl-2-(trifluoromethyl)pentyl]-1-(2-fluorophenyl)-1H-pyrazole-4-carboxamide] | < 3.16 nM
CC(C)(C[C@@](O)(CNC(=O)c1cnn(-c2ccc(Cl)cc2)c1N)C(F)(F)F)c1cc(F)ccc1O [Example 10, (2R)-5-Amino-1-(4-chlorophenyl)-N-[4-(5-fluoro-2-hydroxyphenyl)-2-hydroxy-4-methyl-2-(trifluoromethyl)pentyl]-1H-pyrazole-4-carboxamide] | < 3.16 nM
CC(C)(C[C@@](O)(CNC(=O)c1cnn(-c2ccc(F)cc2)c1N)C(F)(F)F)c1cccc2c1OCC2 [Example 13, (2R)-5-Amino-N-[4-(2,3-dihydro-1-benzofuran-7-yl)-2-hydroxy-4-methyl-2-(trifluoromethyl)pentyl]-1-(4-fluorophenyl)-1H-pyrazole-4-carboxamide] | < 3.16 nM
CC(C)(C[C@@](O)(CNC(=O)c1cnn(-c2ccccc2F)c1N)C(F)(F)F)c1cc(F)ccc1O [Example 8, (2R)-5-Amino-N-[4-(5-fluoro-2-hydroxyphenyl)-2-hydroxy-4-methyl-2-(trifluoromethyl)pentyl]-1-(2-fluorophenyl)-1H-pyrazole-4-carboxamide] | < 3.16 nM
CC(C)(C[C@@](O)(CNC(=O)c1cnn(-c2ccccc2)c1N)C(F)(F)F)c1cccc2c1OCC2 [Example 1, (2R)-5-Amino-N-[4-(2,3-dihydro-1-benzofuran-7-yl)-2-hydroxy-4-methyl-2-(trifluoromethyl)pentyl]-1-phenyl-1H-pyrazole-4-carboxamide] | < 3.16 nM
CC(C)(C[C@@](O)(CNC(=O)c1cnn(-c2ccc(F)cc2F)c1N)C(F)(F)F)c1cc(F)ccc1O [Example 9, (2R)-5-Amino-1-(2,4-difluorophenyl)-N-[4-(5-fluoro-2-hydroxyphenyl)-2-hydroxy-4-methyl-2-(trifluoromethyl)pentyl]-1H-pyrazole-4-carboxamide] | < 3.16 nM
CC(C)(C[C@@](O)(CNC(=O)c1cnn(-c2ccccc2)c1N)C(F)(F)F)c1cc(F)ccc1O [Example 11, (2R)-5-Amino-N-[4-(5-fluoro-2-hydroxyphenyl)-2-hydroxy-4-methyl-2-(trifluoromethyl)pentyl]-1-phenyl-1H-pyrazole-4-carboxamide] | < 3.16 nM
CC(C)(C[C@@](O)(CNC(=O)c1cnn(-c2ccc(F)cc2F)c1N)C(F)(F)F)c1cccc2c1OCC2 [Example 14, (2R)-5-Amino-1-(2,4-difluorophenyl)-N-[4-(2,3-dihydro-1-benzofuran-7-yl)-2-hydroxy-4-methyl-2-(trifluoromethyl)pentyl]-1H-pyrazole-4-carboxamide] | < 3.16 nM
CC(C)(C[C@@](O)(CNC(=O)c1cnn(-c2ccc(Cl)cc2)c1N)C(F)(F)F)c1cccc2c1OCC2 [Example 15, (2R)-5-Amino-1-(4-chlorophenyl)-N-[4-(2,3-dihydro-1-benzofuran-7-yl)-2-hydroxy-4-methyl-2-(trifluoromethyl)Pentyl]-1H-pyrazole-4-carboxamide] | < 3.16 nM
COc1ccc(F)cc1C(C)(C)C[C@@](O)(CNC(=O)c1cnn(-c2ccccc2F)c1N)C(F)(F)F [Example 3, (2R)-5-Amino-N-[4-[5-fluoro-2-(methyloxy)phenyl]-2-hydroxy-4-methyl-2-(trifluoromethyl)pentyl]-1-(2-fluorophenyl)-1H-pyrazole-4-carboxamide] | < 3.16 nM

The remaining lines, values ahead:

EC50 | SMILES
< 3.16 nM | COc1ccc(F)cc1C(C)(C)C[C@@](O)(CNC(=O)c1cnn(-c2ccc(F)cc2F)c1N)C(F)(F)F [Example 4, (2R)-5-Amino-1-(2,4-difluorophenyl)-N-[4-[5-fluoro-2-(methyloxy)phenyl]-2-hydroxy-4-methyl-2-(trifluoromethyl)pentyl]-1H-pyrazole-4-carboxamide]
< 3.16 nM | COc1ccc(F)cc1C(C)(C)C[C@@](O)(CNC(=O)c1cnn(-c2ccc(F)cc2)c1N)C(F)(F)F [Example 2, (2R)-5-Amino-N-[4-[5-fluoro-2-(methyloxy)phenyl]-2-hydroxy-4-methyl-2-(trifluoromethyl)pentyl]-1-(4-fluorophenyl)-1H-pyrazole-4-carboxamide]
< 3.16 nM | COc1ccc(F)cc1C(C)(C)C[C@@](O)(CNC(=O)c1cnn(-c2ccc(Cl)cc2)c1N)C(F)(F)F [Example 5, (2R)-5-Amino-1-(4-chlorophenyl)-N-[4-[5-fluoro-2-(methyloxy)phenyl]-2-hydroxy-4-methyl-2-(trifluoromethyl)pentyl]-1H-pyrazole-4-carboxamide]
< 3.16 nM | COc1ccc(F)cc1C(C)(C)C[C@@](O)(CNC(=O)c1cnn(-c2ccccc2)c1N)C(F)(F)F [Example 6, (2R)-5-Amino-N-[4-[5-fluoro-2-(methyloxy)phenyl]-2-hydroxy-4-methyl-2-(trifluoromethyl)pentyl]-1-phenyl-1H-pyrazole-4-carboxamide]
< 3.16 nM | CC(C)(C[C@@](O)(CNC(=O)c1cnn(-c2ccc(F)cc2)c1N)C(F)(F)F)c1cc(F)ccc1O [Example 7, (2R)-5-Amino-N-[4-(5-fluoro-2-hydroxyphenyl)-2-hydroxy-4-methyl-2-(trifluoromethyl)pentyl]-1-(4-fluorophenyl)-1H-pyrazole-4-carboxamide]
